Reference: ChEMBL document CHEMBL3137356, “MMV Box Cryptosporidium parvum screening set”

tested on: Cryptosporidium parvum; test: MMV: Cryptosporidium parvum oocysts (Iowa Strain) were prepared for use by treatment with 10 mM HCl (37 degrees C, 10 min) followed by 2 mM sodium taurocholate in phosphate-buffered saline (PBS) with Ca2+ and Mg2+ (16 degrees C, 10 min) in order to stimulate excystation. The high-throughput screen was carried out by inoculating >90% confluent human ileocecal adenocarcinoma (HCT-8) cells (ATCC) with ~5.5 x 10^3 primed oocysts per well. Experimental compounds or DMSO (vehicle) were added three hours after infection, and cells were incubated for 48 hours.; type: functional

SMILES	Inhibition [%]
COc1ccc(Nc2nc(N/N=C/c3ccc(O)cc3)nc(Nc3ccc([N+](=O)[O-])cc3)n2)cc1	-49.8
N=c1n(CCN2CCCCC2)c2ccccc2n1CC(=O)c1ccc(Cl)c(Cl)c1	-71.18
Cc1sc(NC(=O)c2ccco2)c(C(c2cccnc2)N2CCC(Cc3ccccc3)CC2)c1C (stereo unspecified)	-7.724
O=C(NNc1cc(N2CCCC2)nc(N2CCCC2)n1)c1ccccc1	-52.02
COC(=O)c1ccc(Cl)c2c1C1C=CCC1C(c1cccc3ccccc13)N2 (stereo unspecified)	-26.02
O=C(CCc1ccccc1)c1ccccc1OCC(O)CN1CCCCC1 (stereo unspecified)	-4.075
OC1=C2C(=Nc3ccccc3SC2c2ccccc2)c2ccccc21 (stereo unspecified)	-46.02
COc1cc(C(=O)Nc2ccc(-c3nc4ccccc4[nH]3)cc2)cc(OC)c1OC	41.18
COC(=O)c1ccc(C2C3=C(O)CC(c4ccc(F)cc4)CC3=Nc3ccccc3N2C(=O)c2ccccc2)cc1 (stereo unspecified)	-18.81
CCOc1ccc(CN2CCN(CC(O)COc3ccc(OCC(O)CN4CCN(Cc5ccc(OCC)cc5)CC4)cc3)CC2)cc1 (stereo unspecified)	1.883
CCCCNc1nc(NC(C)(C)C)nc(NC(C)(C)C)n1	20.51
CC(=O)c1sc(NC(=O)Nc2ccc(C)cc2C)nc1C	-18.27
Cn1c(C(=O)c2cccc3ccccc23)nc2ccccc21	-17.7
Oc1ccc2ccccc2c1CNc1nc2ccccc2[nH]1	-48.76
O=C(Nc1ccc(-c2nc3ccccc3[nH]2)cc1)c1ccc(Cl)c(Cl)c1	10.57
OCCNc1nc(Nc2ccc(Cl)c(Cl)c2)nc2ccccc12	12.96

SMILES	Inhibition [%]
Nc1ccc(-c2nc3cc(Oc4ccc(Oc5ccc6[nH]c(-c7ccc(N)cc7)nc6c5)cc4)ccc3[nH]2)cc1	-48.18
Cc1cc(N(C)C)nc(Nc2ccc(NC(=O)Nc3ccccc3)cc2)n1	-29.16
COc1cc(C(=O)ON=C(N)Cc2cccc3ccccc23)cc(OC)c1OC	26.07
Oc1c(C(Nc2ccccn2)c2cccc(Oc3ccccc3)c2)ccc2cccnc12 (stereo unspecified)	73.93
COc1cc(-c2nc(-c3ccccc3)c(-c3ccccc3)[nH]2)cc(OC)c1O	-1.324
Cc1ccc(Nc2nc(N)c3ccccc3n2)cc1Cl	40.42
CCc1ccc(CNCC(O)c2ccccc2)cc1.Cl (stereo unspecified)	-7.138
Br.CCn1c2c(c(=N)c3c1CCC3)CCCC2	9.729
Cc1ccc2c(C)nc(Nc3nc(C)cc(-c4ccccc4)n3)nc2c1	-62.95
CCOc1ccc(Nc2ccnc3cc(Cl)ccc23)cc1	-43.83
Br.Cc1ccc(C)c(-c2csc(Nc3ccc(C)c(C)c3)n2)c1	-25.23
CCCn1c(=N)c(C(=O)NC2CCCCC2)cc2c(=O)n3cccc(C)c3nc21	-27.29
Nc1ccn([C@@H]2O[C@H](CO)[C@@H](O)[C@H]2O)c(=O)n1 [CYTIDINE]	73.84
O=C(Nc1cccc(C2=NCCN2)c1)Nc1cccc(C2=NCCN2)c1 [IMIDOCARB]	9.453
CN(C)c1ccc(C(O)(c2ccc(N(C)C)cc2)c2ccc(N(C)C)cc2)cc1 [METHYLROSANILINE]	77.77
